# Measured values published in patent publication US20140147856A1, “Intestinal Permeability Assay for Neurodegenerative Diseases” (Rush University Medical Center, priority 2012, published 2014).
# Assay: Oral sugar intestinal permeability assay (urinary sugar excretion by gas chromatography)
# Format: in vivo, human
# Conditions: oral sugar mixture with 1 gram sucralose after overnight fast, 24 h urine
# Description: In an example of a protocol used to validate the instant invention, patients with clinically diagnosed PD not yet requiring dopaminergic therapy were recruited under a clinical protocol (FIG. 1 and Table 1). […] Constipation was defined as fewer than 3 bowel movements per week or if the subject complained of constipation. Men and women who met United Kingdom Parkinson Disease Research Society brain bank criteria for PD, Hoehn & Yahr stage 1-2.5 were included. Subjects were excluded based on the following: atypical or secondary Parkinsonism, any known organic gastrointestinal disease, use of drugs affecting gastrointestinal motility, anti-inflammatory agents, and chronic diuretic use. Control subjects were of similar age and gender that had no GI or neurological symptoms or signs (determined by examination by a board certified neurologist with expertise in movement disorders) and were not taking regular medication or anti-inflammatory agents.
# Subjects fasted overnight and subsequently ingested a sugar mixture containing 2 grams mannitol, 7.5 grams lactulose, 40 grams sucrose, and 1 gram sucralose at 6 AM, then collected 2 sequential 12-hour urine samples. Urine was analyzed for sugar content using gas chromatography (GC) techniques as described herein. […] The final residue is dissolved in 0.5 ml acetone and the sample is ready for analysis. […]
smiles,measurement,setting,value
OC[C@H]1O[C@H](O[C@]2(CCl)O[C@H](CCl)[C@@H](O)[C@@H]2O)[C@H](O)[C@@H](O)[C@H]1Cl [sucralose],mean 24 h urinary sucralose (marker of total intestinal permeability),PD subjects,1.12±0.1% of oral dose
same,mean 24 h urinary sucralose (marker of total intestinal permeability),age matched controls,0.58±0.1% of oral dose
